Values joined by “and” are separate entries in the source; they are usually repeats but may differ in a detail not shown here. Equal entries are not always repeated. “Also recorded” adds a separate entry of the source. Where two headings read alike, the source gives them in different places.
Assays:
[1] = test system: F. tularensis subsp. tularensis; assay: microbe, parasite or virus in culture; assay type: cell-based, Francisella tularensis subsp. tularensis
[2] = test system: F. tularensis subsp. novicida; assay type: cell-based, Francisella tularensis subsp. novicida
F. tularensis, total = assay type: cell-based, Francisella tularensis
[3] = test system: F. tularensis subsp. holarctica; assay: microbe, parasite or virus in culture; assay type: cell-based, Francisella tularensis subsp. holarctica
[4] = test system: F. tularensis subsp. tularensis strain SchuS4; design: species or system mice; settings: mouse
[5] = test system: F. tularensis subsp. tularensis strain SchuS4; assay type: in vivo, mice

| SMILES | in vitro activity (in words) [1] | activity (in words) ([2]; subsp. novicida) | MIC ([2]; subsp. novicida, N=1, CAMHB + 2% Isovitalex, 35 °C, 48 h) [µg/mL] | antimicrobial activity against F. tularensis (in words) (F. tularensis, total) | in vitro activity (in words) (F. tularensis, total) | MIC ([1]; Francisella tularensis, read-out: concentration at which all subsp. tularensis isolates were inhibited) [µg/mL] | activity / MIC values compared with subsp. tularensis (in words) [3] | activity (in words) [2] | efficacy in the murine in vivo model (in words) [4] | animals surviving until day 45 ([4]; in vivo) | effect of oral treatment on survival (in words) ([4]; in vivo) | mortality 5 days after the last treatment ([4]; in vivo) [%] | survival by the end of treatment (Day 15) ([4]; in vivo) | bacterial load in spleen ([5]; animals surviving until day 45 (ciprofloxacin: average of two; Lefamulin: one), spleen) | bacterial load in lung ([5]; one remaining Lefamulin-treated animal, day 45, lung) |
| --- | --- | --- | --- | --- | --- | --- | --- | --- | --- | --- | --- | --- | --- | --- | --- |
| CC[C@H]1OC(=O)[C@H](C)[C@@H](O[C@H]2C[C@@](C)(OC)[C@@H](O)[C@H](C)O2)[C@H](C)[C@@H](O[C@@H]2O[C@H](C)C[C@H](N(C)C)[C@H]2O)[C@](C)(O)C[C@@H](C)C(=O)[C@H](C)[C@@H](O)[C@]1(C)O [Erythromycin] | slightly weaker activity | inactive | ≥8 | – | – | – | – | – | – | – | – | – | – | – | – |
| C=C[C@]1(C)C[C@@H](OC(=O)CS[C@@H]2CC[C@@H](N)C[C@H]2O)[C@]2(C)[C@H](C)CC[C@]3(CCC(=O)[C@H]32)[C@@H](C)[C@@H]1O [Lefamulin, 14-O-{[(1R, 2R, 4R)-4-amino-2-hydroxy-cyclohexylsulfanyl]-acetyl}-mutilin] | surprisingly potent activity | – | – | active in vitro and in vivo; also recorded: potent inhibition | potent in vitro activity | ≤ 4 | slightly higher | Potent activity | comparable efficacy | one | effective in prolonging the survival | ~100 | 100% and 90% | 7.7×10^6 CFU/g | 1.3×10^6 CFU/g |

Source: patent US20260365618A1 (priority 2022, published 2026)
